Laboratory results from US11999676B2, “Vesicular monoamine transporter-2 ligands and their use in the treatment of psychostimulant abuse” (priority 2016, dated 2024).
Like-named read-outs stand apart in the source and are kept apart here.

Assays:
[1] = target: VMAT2 (Rattus norvegicus (Rat), UniProt Q01827); test: [3H]Dopamine ([3H]DA) uptake assay, vesicular preparation; format: biochemical
[2] = Microsomal stability assay, rat liver microsomes; conditions: female, Sprague-Dawley, rat, liver microsomes; for CLint scaled at 0.08 µM: pH 7.4, Microsomal stability assays: Clearance; for half-life at 0.08 µM: pH 7.4, Microsomal stability assays: Half-life
Experimental: Each plate holds triplicate samples of two controls (0.4 mM) and up to 14 compounds (0.08 mM) in rat and human liver microsomes. Aliquots of each well of the plate (175 μl of each well) were transferred from the master plate into 5 assay plates. For 0-hr time point, pre-cooled (4° C.) internal standard (437.5 μL, 2 μM caffeine in methanol) was added to the first plate before the reaction starts. NADPH regenerating system solution A (6.05 ml, Fisher Scientific, #NC9255727) was combined with NADPH regenerating system solution B (1.21 ml, Fisher Scientific, #NC9016235) in potassium phosphate buffer (15.8 ml, 0.1 M, pH 7.4, 37° C.). The resulting NADPH solution (43.8 μl) was added to each well of all the 96-well assay plates and mixed with pipette briefly making the final protein and compound concentrations respectively: 0.5 mg/ml, 0.08 μM (0.4 μM for controls). Plates were sealed, and all plates except the 0-hr plate were incubated at 37° C., shaken at a speed of 60 rpm. A single assay plate was tested at each time point: 0.5 hr, 1 hr, 2 hr, and 4 hr. At each time point, 437.5 μL of pre-cooled internal standard was added each well of the plate to quench the reaction. […] 120 μl supernatant was transferred to a 96-well plate, centrifuged again and analyzed by UPLC-MS (Waters Inc., Milford, MA). The compounds and internal standard were detected by selected ion recording (SIR).
The amount of material was measured as a ratio of peak area to the internal standard and graphed. Using the slope from the initial linear portion of this curve, the degradation rate constant is calculated using equation [1].

[3] = [3H]DA uptake (Ki) VMAT2, rat striatal synaptic vesicles
[4] = [3H]DA uptake, rat, read-out: VMAT2 (rat) Inhibition: Mean Ki ± Standard Deviation

SMILES	Ki [1, 3]	Ki [1, 4]	CLint scaled at 0.08 µM [2]	half-life at 0.08 µM [2]
C[C@H](Cc1ccc(Br)cc1)NCCCc1ccccc1 [Compound 12]	6 ± 1 nM			
C[C@@H](Cc1ccc(Br)cc1)NCCCc1ccccc1 [Compound 13]	32 ± 4 nM			
COc1ccc(C[C@@H](C)NCCCc2ccccc2)cc1 [Compound 27]	45 ± 4 nM			
COc1ccc(C[C@H](C)NCCCc2ccccc2)cc1 [Compound 28]	20 ± 1 nM			
CC(C)Nc1ccc(CCCNC(C)Cc2ccc(F)cc2)cc1 (stereo not drawn) [Compound 65]		112 ± 16.8 nM		
CC(Cc1ccc(F)cc1)NCCCc1ccc(NC=O)cc1 (stereo not drawn) [Compound 71]			97.2 mL/min/kg	30 min
CC(Cc1ccc(NC=O)cc1)NCCCc1ccccc1 (stereo not drawn) [Compound 78]			167 mL/min/kg	18 min
CC(Cc1ccc(F)cc1)NCCCc1ccc(NC2CCC2)cc1 (stereo not drawn) [Compound 93]		129 ± 7.41 nM		
CC(Cc1ccc(N)cc1)NCCCc1ccncc1 (stereo not drawn) [Compound 103]		378 ± 30 nM		
CC(Cc1ccc(N)cc1)NCCCc1ccccc1 (stereo not drawn) [Compound 106]			17.9 mL/min/kg	156 min
CC(Cc1ccc([N+](=O)[O-])cc1)NCCCc1ccncc1 (stereo not drawn) [Compound 114]			95.9 mL/min/kg	30 min
CC(Cc1ccc([N+](=O)[O-])cc1)NCCCc1ccccc1 (stereo not drawn) [Compound 116]			> 400 mL/min/kg	< 6 min
CC(Cc1ccc([N+](=O)[O-])cc1)NCCCc1ccc(Br)cc1 (stereo not drawn) [Compound 122]			> 400 mL/min/kg	< 6 min
CC(Cc1ccc(F)cc1)NCCCc1ccccc1 (stereo not drawn) [Compound 127]			> 400 mL/min/kg	< 6 min
OCC(Cc1ccc(F)cc1)NCCCc1ccncc1 (stereo not drawn) [Compound 128]			< 10 mL/min/kg	> 240 min
CC(Cc1ccc(F)cc1)NCCCn1ccnc1 (stereo not drawn) [Compound 135]			< 7 mL/min/kg	> 240 min
CC(C)C(Cc1ccc(F)cc1)NCCCc1ccccc1 (stereo not drawn) [Compound 136]		386 ± 66.4 nM		

SMILES	Ki [1, 3]	Ki [1, 4]	CLint scaled at 0.08 µM [2]	half-life at 0.08 µM [2]
CS(=O)(=O)c1ccc(CCCNC(CF)Cc2ccc(F)cc2)cc1 (stereo not drawn) [Compound 137]		182 ± 56.7 nM		
CC(Cc1ccc(F)cc1)NCCCc1ccc(S(C)(=O)=O)cc1 (stereo not drawn) [Compound 139]			< 7 mL/min/kg	> 240 min
CC(C)C(Cc1ccc(F)cc1)NCCCc1ccc(Br)cc1 (stereo not drawn) [Compound 141]			> 450 mL/min/kg	< 6 min
CC(Cc1ccc(F)cc1)NCCCc1ccc([S+](C)[O-])cc1 (stereo not drawn) [Compound 144]		178 ± 78.9 nM		
CC(Cc1ccc(F)cc1)NCCCc1ccc(N(C)C)cc1 (stereo not drawn) [Compound 157]			> 400 mL/min/kg	< 6 min
CC(Cc1ccc(F)cc1)NCCCc1ccnc2ccccc12 (stereo not drawn) [Compound 163]			> 400 mL/min/kg	< 6 min
CC(Cc1ccc(F)cc1)NCCCc1ccc(-c2ccnn2C)cc1 (stereo not drawn) [Compound 167]			111 mL/min/kg	24 min
CC(Cc1ccncc1)NCCCc1ccc(Br)cc1 (stereo not drawn) [Compound 169]			200 mL/min/kg	12 min
COc1ccc(CCCNC(C)Cc2ccncc2)cc1 (stereo not drawn) [Compound 173]			126 mL/min/kg	24 min
CC(Cc1ccncc1)NCCCc1ccc(F)cc1 (stereo not drawn) [Compound 187]			150 mL/min/kg	18 min
CC(Cc1ccc(F)cc1)NCCCc1ccc(Cl)cc1 (stereo not drawn) [Compound 189]			> 400 mL/min/kg	< 6 min
CC(Cc1ccc(F)cc1)NCCCc1ccc(F)cc1 (stereo not drawn) [Compound 191]			195 mL/min/kg	12 min
CC(Cc1ccccc1)NCCCc1ccc(-c2cncnc2)cc1 (stereo not drawn) [Compound 203]			248 mL/min/kg	12 min
CC(Cc1ccccc1)NCCCc1ccncc1 (stereo not drawn) [Compound 205]			90.6 mL/min/kg	30 min
CC(Cc1ccccc1)NCCCc1ccc(-c2cccs2)cc1 (stereo not drawn) [Compound 206]		125 ± 25.4 nM		
CC(Cc1ccccc1)N(CCCc1ccc(O)cc1)CCCc1ccc(O)cc1 (stereo not drawn) [Compound 225]		4.99 ± 1.19 nM		
